{"source": "ChEMBL document CHEMBL4311992", "about": "“Discovery of 3-(((9H-purin-6-yl)amino)methyl)-4,6-dimethylpyridin-2(1H)-one derivatives as novel tubulin polymerization inhibitors for treatment of cancer” (Eur J Med Chem, 2019)", "key": {"[1]": {"biological_target": "Ribosomal protein S6 kinase alpha-1 (Homo sapiens) (UniProt Q15418)", "assay": "Inhibition of recombinant full-length human Rsk1 assessed as residual activity at 10 uM using KKKNRTLSVA as substrate measured after 40 mins in presence of [gamma33P]ATP by scintillation counting method"}, "[2]": {"species_on_record": "Mus musculus", "assay": "Inhibition of recombinant full-length mouse PI3K p110alpha/p85alpha E542K mutant assessed as residual activity at 10 uM using phosphatidylinositol-4, 5-bisphosphate as substrate measured after 40 mins by HTRF assay"}, "[3]": {"assay": "Toxicity in Balb/c mouse spleen at 80 mg/kg after 4 weeks by hematoxylin and eosin staining-based assay", "assay_type": "organism-based", "details": "in vivo, 672 h"}, "[4]": {"biological_target": "ALK tyrosine kinase receptor (Homo sapiens) (UniProt Q9UM73)", "sequence (Q9UM73 19-1620 limits assumed)": "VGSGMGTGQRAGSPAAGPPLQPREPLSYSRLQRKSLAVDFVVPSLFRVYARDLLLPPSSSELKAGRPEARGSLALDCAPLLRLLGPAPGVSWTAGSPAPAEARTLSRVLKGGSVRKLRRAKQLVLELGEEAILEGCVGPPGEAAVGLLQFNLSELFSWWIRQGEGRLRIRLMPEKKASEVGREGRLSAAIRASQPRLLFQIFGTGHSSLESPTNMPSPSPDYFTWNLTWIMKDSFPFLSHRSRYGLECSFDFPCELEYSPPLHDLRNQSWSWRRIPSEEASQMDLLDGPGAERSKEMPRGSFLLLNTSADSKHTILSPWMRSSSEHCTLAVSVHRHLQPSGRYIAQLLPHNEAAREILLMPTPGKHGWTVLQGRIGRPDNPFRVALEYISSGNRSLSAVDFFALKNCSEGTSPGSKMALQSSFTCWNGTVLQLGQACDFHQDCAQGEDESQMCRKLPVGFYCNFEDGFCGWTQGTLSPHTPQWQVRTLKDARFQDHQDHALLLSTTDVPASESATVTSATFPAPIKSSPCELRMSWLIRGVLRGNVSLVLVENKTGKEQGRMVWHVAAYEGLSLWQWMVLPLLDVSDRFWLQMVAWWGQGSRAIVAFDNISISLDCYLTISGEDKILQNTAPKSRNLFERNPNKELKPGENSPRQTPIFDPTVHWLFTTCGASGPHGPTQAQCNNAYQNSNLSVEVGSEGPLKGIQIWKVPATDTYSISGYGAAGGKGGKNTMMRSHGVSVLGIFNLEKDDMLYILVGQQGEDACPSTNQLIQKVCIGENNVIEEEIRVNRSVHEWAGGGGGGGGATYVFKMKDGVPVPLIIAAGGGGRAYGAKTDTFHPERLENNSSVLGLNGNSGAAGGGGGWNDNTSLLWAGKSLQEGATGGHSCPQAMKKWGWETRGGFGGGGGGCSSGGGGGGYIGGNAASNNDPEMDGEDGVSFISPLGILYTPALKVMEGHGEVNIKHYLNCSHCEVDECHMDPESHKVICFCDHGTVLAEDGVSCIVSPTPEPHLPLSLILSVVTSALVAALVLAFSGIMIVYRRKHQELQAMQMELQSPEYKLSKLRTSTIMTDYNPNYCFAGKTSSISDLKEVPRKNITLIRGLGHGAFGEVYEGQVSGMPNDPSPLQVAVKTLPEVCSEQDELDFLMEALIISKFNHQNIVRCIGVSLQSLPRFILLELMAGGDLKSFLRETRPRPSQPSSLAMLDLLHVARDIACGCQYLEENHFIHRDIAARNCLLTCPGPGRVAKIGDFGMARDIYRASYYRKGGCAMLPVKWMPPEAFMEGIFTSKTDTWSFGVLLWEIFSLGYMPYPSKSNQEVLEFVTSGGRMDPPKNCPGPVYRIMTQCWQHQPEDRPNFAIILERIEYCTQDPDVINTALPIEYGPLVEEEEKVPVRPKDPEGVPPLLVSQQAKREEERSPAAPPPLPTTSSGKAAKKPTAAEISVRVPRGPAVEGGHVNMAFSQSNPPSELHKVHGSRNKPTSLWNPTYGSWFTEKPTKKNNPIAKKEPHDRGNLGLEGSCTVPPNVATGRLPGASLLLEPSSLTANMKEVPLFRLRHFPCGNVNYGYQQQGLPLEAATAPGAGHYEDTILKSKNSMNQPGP", "assay": "Inhibition of recombinant human ALK (1058 to end residues) assessed as residual activity at 10 uM using KKKSPGEYVNIEF as substrate measured after 40 mins in presence of [gamma33P]ATP by scintillation counting method"}, "[5]": {"tested_on": "Tyrosine-protein kinase ABL1 (Homo sapiens), P00519 [M351T]", "assay": "Inhibition of recombinant human ABL M351T mutant (27 to end residues) assessed as residual activity at 10 uM using EAIYAAPFAKKK as substrate measured after 40 mins in presence of [gamma33P]ATP by scintillation counting method"}, "[6]": {"biological_target": "CDC7/Cyclin B1 (Homo sapiens) (UniProt P14635+O00311)", "sequence (O00311 whole entry, looked up)": "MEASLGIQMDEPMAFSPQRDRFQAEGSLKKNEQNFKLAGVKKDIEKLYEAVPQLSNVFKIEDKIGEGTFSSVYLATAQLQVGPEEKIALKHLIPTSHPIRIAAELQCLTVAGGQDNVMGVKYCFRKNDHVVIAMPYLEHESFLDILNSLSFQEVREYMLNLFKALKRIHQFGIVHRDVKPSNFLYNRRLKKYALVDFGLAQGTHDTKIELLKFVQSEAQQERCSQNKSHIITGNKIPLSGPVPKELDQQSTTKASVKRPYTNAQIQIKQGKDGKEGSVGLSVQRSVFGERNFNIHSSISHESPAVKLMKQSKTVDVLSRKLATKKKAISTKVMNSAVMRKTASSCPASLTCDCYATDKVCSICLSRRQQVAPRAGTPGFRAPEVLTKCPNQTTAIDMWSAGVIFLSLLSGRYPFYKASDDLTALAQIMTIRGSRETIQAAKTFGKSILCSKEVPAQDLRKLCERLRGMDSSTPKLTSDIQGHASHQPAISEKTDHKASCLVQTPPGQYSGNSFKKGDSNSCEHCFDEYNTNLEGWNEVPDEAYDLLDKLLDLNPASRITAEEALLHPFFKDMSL", "sequence (P14635 whole entry, looked up)": "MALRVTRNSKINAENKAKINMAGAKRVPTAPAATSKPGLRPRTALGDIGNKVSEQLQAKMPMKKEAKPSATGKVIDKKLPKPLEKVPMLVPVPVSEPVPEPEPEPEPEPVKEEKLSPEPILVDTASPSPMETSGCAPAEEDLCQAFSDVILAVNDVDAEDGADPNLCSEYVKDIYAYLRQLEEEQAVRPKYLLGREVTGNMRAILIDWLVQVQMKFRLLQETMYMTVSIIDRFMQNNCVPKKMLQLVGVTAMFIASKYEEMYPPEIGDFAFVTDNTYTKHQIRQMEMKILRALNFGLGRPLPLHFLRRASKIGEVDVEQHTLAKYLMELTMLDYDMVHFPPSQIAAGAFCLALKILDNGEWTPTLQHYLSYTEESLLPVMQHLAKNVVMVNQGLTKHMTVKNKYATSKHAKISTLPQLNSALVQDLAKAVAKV", "assay": "Inhibition of recombinant full-length human CDC7/cyclinB1 assessed as residual activity at 10 uM using Histone H1 as substrate measured after 120 mins in presence of [gamma33P]ATP by scintillation counting method", "assay_type": "protein-complex assay"}, "[7]": {"biological_target": "CDK6/cyclin D3 (Homo sapiens) (UniProt P30281+Q00534)", "assay": "Inhibition of recombinant full-length human CDK6/cyclin D3 assessed as residual activity at 10 uM using histone H1 as substrate measured after 40 mins in presence of [gamma33P]ATP by scintillation counting method", "assay_type": "protein-complex assay"}, "[8]": {"biological_target": "CDK7/Cyclin H/MNAT1 (Homo sapiens) (UniProt P51946+P50613+P51948)", "assay": "Inhibition of recombinant full length human CDK7/cyclin H/MAT1 assessed as residual activity at 10 uM using peptide substrate measured after 40 mins in presence of [gamma33P]ATP by scintillation counting method", "assay_type": "protein-complex assay"}, "[9]": {"tested_on": "Mast/stem cell growth factor receptor Kit (Homo sapiens), P10721 [D816V]", "assay": "Inhibition of recombinant human c-Kit D816V mutant (544 to end residues) assessed as residual activity at 10 uM using poly(Glu, Tyr) 4:1 as substrate measured after 40 mins in presence of [gamma33P]ATP by scintillation counting method"}, "[10]": {"biological_target": "Dual specificity tyrosine-phosphorylation-regulated kinase 1B (Homo sapiens) (UniProt Q9Y463)", "sequence (Q9Y463 whole entry, looked up)": "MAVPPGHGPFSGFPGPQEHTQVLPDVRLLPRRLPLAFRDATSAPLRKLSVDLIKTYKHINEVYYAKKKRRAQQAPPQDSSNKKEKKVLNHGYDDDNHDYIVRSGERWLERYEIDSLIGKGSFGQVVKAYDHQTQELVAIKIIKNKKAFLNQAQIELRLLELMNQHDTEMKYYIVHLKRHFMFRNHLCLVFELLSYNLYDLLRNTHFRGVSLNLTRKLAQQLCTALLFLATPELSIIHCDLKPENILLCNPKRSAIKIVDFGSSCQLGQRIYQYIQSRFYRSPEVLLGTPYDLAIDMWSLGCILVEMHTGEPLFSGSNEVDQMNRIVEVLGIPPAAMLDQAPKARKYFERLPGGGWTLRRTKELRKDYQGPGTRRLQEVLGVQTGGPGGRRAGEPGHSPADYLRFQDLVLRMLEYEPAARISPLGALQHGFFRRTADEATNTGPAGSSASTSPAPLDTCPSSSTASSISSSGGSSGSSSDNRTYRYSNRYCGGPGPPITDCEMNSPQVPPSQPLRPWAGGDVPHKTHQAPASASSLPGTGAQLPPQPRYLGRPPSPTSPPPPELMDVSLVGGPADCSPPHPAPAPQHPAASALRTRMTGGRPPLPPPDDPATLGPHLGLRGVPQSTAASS", "assay": "Inhibition of recombinant full-length human DYRK1B assessed as residual activity at 10 uM using RRRFRPASPLRGPPK as substrate measured after 40 mins in presence of [gamma33P]ATP by scintillation counting method"}, "[11]": {"biological_target": "Dual specificity tyrosine-phosphorylation-regulated kinase 3 (Homo sapiens) (UniProt O43781)", "sequence (O43781 whole entry)": "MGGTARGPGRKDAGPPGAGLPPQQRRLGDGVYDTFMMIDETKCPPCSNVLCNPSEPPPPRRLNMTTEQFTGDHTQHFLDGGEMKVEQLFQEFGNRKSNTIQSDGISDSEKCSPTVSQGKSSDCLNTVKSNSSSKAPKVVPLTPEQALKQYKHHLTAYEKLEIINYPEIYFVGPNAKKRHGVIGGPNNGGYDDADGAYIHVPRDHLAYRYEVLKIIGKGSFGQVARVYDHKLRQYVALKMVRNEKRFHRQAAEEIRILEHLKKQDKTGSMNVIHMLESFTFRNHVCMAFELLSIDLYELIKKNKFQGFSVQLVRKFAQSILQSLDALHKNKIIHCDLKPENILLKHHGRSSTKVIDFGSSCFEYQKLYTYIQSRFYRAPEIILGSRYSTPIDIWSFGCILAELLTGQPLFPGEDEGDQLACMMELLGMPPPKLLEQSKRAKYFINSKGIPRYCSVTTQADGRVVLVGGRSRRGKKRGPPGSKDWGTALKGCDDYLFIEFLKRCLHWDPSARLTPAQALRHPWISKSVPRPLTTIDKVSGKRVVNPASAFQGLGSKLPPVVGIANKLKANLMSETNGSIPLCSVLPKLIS", "assay": "Inhibition of recombinant full-length human DYRK3 assessed as residual activity at 10 uM using RRRFRPASPLRGPPK as substrate measured after 40 mins in presence of [gamma33P]ATP by scintillation counting method"}, "[12]": {"species_on_record": "Homo sapiens", "assay": "Inhibition of recombinant human Flt4 V1128L/H1146R mutant (800 to end residues) assessed as residual activity at 10 uM using GGEEEEYFELVKKKK as substrate measured after 40 mins in presence of [gamma33P]ATP by scintillation counting method"}, "[13]": {"biological_target": "Mitogen-activated protein kinase kinase kinase kinase 2 (Homo sapiens) (UniProt Q12851)", "assay": "Inhibition of recombinant human GCK assessed as residual activity at 10 uM using myelin basic protein as substrate measured after 40 mins in presence of [gamma33P]ATP by scintillation counting method"}, "[14]": {"biological_target": "Tyrosine-protein kinase HCK (Homo sapiens) (UniProt P08631)", "assay": "Inhibition of recombinant human activated HCK (230 to 497 residues) assessed as residual activity at 10 uM using GGMEDIYFEFMGGKKK as substrate measured after 40 mins in presence of [gamma33P]ATP by scintillation counting method"}, "[15]": {"biological_target": "Vascular endothelial growth factor receptor 2 (Homo sapiens) (UniProt P35968)", "assay": "Inhibition of recombinant human KDR (790 to end residues) assessed as residual activity at 10 uM using myelin basic protein substrate measured after 40 mins in presence of [gamma33P]ATP by scintillation counting method"}, "[16]": {"biological_target": "Tyrosine-protein kinase Lck (Homo sapiens) (UniProt P06239)", "sequence (P06239 2-509 limits assumed)": "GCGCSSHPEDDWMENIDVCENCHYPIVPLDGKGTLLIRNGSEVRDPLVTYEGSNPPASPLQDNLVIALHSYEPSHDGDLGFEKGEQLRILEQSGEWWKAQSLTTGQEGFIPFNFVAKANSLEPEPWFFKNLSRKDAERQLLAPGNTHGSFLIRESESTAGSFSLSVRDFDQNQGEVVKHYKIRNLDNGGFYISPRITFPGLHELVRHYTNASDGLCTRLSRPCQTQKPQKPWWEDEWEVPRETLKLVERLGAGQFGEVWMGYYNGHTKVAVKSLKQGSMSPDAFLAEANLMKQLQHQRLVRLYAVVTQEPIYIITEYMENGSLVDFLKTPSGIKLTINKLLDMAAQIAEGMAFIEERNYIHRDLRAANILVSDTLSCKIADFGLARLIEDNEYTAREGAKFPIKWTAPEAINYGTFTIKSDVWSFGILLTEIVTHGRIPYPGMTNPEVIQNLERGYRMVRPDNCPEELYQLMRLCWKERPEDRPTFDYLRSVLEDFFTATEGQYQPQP", "assay": "Inhibition of recombinant full-length human Lck assessed as residual activity at 10 uM using KVEKIGEGTYGVV as substrate measured after 40 mins in presence of [gamma33P]ATP by scintillation counting method"}, "[17]": {"biological_target": "Mitogen-activated protein kinase kinase kinase 10 (Homo sapiens) (UniProt Q02779)", "assay": "Inhibition of recombinant human MLK2 (1 to 449 residues) assessed as residual activity at 10 uM using myelin basic protein as substrate measured after 40 mins in presence of [gamma33P]ATP by scintillation counting method"}, "[18]": {"tested_on": "Proto-oncogene tyrosine-protein kinase receptor Ret (Homo sapiens), P07949 [V804M]", "assay": "Inhibition of human Ret V804M mutant (658 to end residues) using […] as substrate measured after 40 mins in presence of [gamma33P]ATP by scintillation counting method", "set-up": "scale not given: the % may be the effect or the level left"}, "[19]": {"biological_target": "Serine/threonine-protein kinase 33 (Homo sapiens) (UniProt Q9BYT3)", "sequence (Q9BYT3 whole entry, looked up)": "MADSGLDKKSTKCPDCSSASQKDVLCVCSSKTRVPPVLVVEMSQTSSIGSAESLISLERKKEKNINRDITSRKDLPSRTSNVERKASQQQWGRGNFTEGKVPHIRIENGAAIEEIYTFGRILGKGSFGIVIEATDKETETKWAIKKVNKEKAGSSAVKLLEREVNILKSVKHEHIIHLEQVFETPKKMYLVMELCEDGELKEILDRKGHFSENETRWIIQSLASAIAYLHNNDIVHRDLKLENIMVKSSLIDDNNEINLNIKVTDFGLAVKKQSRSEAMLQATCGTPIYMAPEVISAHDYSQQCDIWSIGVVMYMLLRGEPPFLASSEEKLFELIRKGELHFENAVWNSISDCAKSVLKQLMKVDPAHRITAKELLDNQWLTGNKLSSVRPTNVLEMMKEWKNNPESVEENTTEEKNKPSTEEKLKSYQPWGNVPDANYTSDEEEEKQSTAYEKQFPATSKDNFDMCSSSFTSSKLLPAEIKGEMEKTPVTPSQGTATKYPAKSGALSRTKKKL", "assay": "Inhibition of recombinant full-length human STK33 assessed as residual activity at 10 uM using myelin basic protein as substrate measured after 40 mins in presence of [gamma33P]ATP by scintillation counting method"}, "[20]": {"biological_target": "Tyrosine-protein kinase SYK (Homo sapiens) (UniProt P43405)", "assay": "Inhibition of recombinant full-length human Syk assessed as residual activity at 10 uM using poly(Glu, Tyr) 4:1 as substrate measured after 120 mins in presence of [gamma33P]ATP by scintillation counting method"}, "[21]": {"tested_on": "PI3-kinase p110-alpha/p85-alpha (Homo sapiens), P27986+P42336 [H1047R]", "assay": "Inhibition of recombinant full-length human PI3K p110alpha/p85alpha H1047R mutant assessed as residual activity at 10 uM using phosphatidylinositol-4, 5-bisphosphate as substrate measured after 40 mins by fluorescence assay", "assay_type": "protein-complex assay"}, "[22]": {"biological_target": "Phosphatidylinositol 3-kinase C2 domain-containing subunit gamma (Homo sapiens) (UniProt O75747)", "assay": "Inhibition of recombinant human PI3KC2gamma (468 to 1203 residues) assessed as residual activity at 10 uM using phosphatidylinositol as substrate measured after 40 mins by HTRF assay"}, "[23]": {"assay": "Toxicity in nude BALB/c mouse assessed as change in albumin level at 40 to 80 mg/kg, po once daily for 4 weeks measured post-last dose", "assay_type": "organism-based", "details": "in vivo, 672 h"}, "[24]": {"tested_on": "SW-620", "assay": "Induction of apoptosis in human SW620 cells assessed as early apoptotic cells at 50 nM measured after 48 hrs by Annexin V-FITC/propidium iodide staining-based flow cytometry (reference value: 0.773%)", "assay_type": "functional"}}}
{"smiles": "Cc1cc(C)c(CNc2nc(Cl)nc3c2ncn3C2CCCC2)c(=O)[nH]1", "values": [{"measurement": "Activity", "setting": "[1]", "result": 112, "unit": "%"}, {"measurement": "Activity", "setting": "[2]", "result": 95, "unit": "%"}, {"measurement": "Activity", "setting": "[3]", "result": "Non-Toxic"}, {"measurement": "Activity", "setting": "[4]", "result": 112, "unit": "%"}, {"measurement": "Activity", "setting": "[5]", "result": 96.5, "unit": "%"}, {"measurement": "Activity", "setting": "[6]", "result": 102, "unit": "%"}, {"measurement": "Activity", "setting": "[7]", "result": 98.5, "unit": "%"}, {"measurement": "Activity", "setting": "[8]", "result": 101, "unit": "%"}, {"measurement": "Activity", "setting": "[9]", "result": 93, "unit": "%"}, {"measurement": "Activity", "setting": "[10]", "result": 100, "unit": "%"}, {"measurement": "Activity", "setting": "[11]", "result": 122, "unit": "%"}, {"measurement": "Activity", "setting": "[12]", "result": 104, "unit": "%"}, {"measurement": "Activity", "setting": "[13]", "result": 100, "unit": "%"}, {"measurement": "Activity", "setting": "[14]", "result": 115, "unit": "%"}, {"measurement": "Activity", "setting": "[15]", "result": 107, "unit": "%"}, {"measurement": "Activity", "setting": "[16]", "result": 84.5, "unit": "%"}, {"measurement": "Activity", "setting": "[17]", "result": 91, "unit": "%"}, {"measurement": "Activity", "setting": "[18]", "result": 106, "unit": "%"}, {"measurement": "Activity", "setting": "[19]", "result": 86.5, "unit": "%"}, {"measurement": "Activity", "setting": "[20]", "result": 123, "unit": "%"}, {"measurement": "Activity", "setting": "[21]", "result": 101, "unit": "%"}, {"measurement": "Activity", "setting": "[22]", "result": 100, "unit": "%"}, {"measurement": "Activity", "setting": "[23]", "result": "Non-Toxic"}, {"measurement": "Activity", "setting": "[24]", "result": 1.01, "unit": "%"}]}
